Experimental data: patent US20220273809A1, “AXL ANTIBODY-DRUG CONJUGATES FOR USE IN TREATING CANCER” (GENMAB A/S, priority 2019, published 2022)

Legend:
[1] = test system: LCLC-103H NSCLC cell line-derived xenograft; assay: LCLC-103H NSCLC xenograft model with MART-1-specific human T cells; assay type: in vivo, mice; conditions: ADC 1 mg/kg weekly i.v. with control T cells; anti-PD1 5 mg/kg weekly i.p. with MART-1 T cells and control ADC
Experimental: The anti-tumor activity of IgG1-AXL-107-vcMMAE in combination with anti-PD1 (pembrolizumab) was evaluated in the LCLC-103H NSCLC cell line-derived xenograft model in mice, which systemically received human T-cells that were engineered to express a specific T-cell receptor (TCR) against MART-1. Before inoculation of mice with LCLC-103H cells, the LCLC-103H cells were transduced with the antigen (MART-1) as well as the correct HLA haplotype (HLA-A2) in order for the MART-1-specific T cells to recognize the tumor cells.
8-14 week old male and female NOD-SCID Gamma (NSGTM) mice (bred in-house at the Netherlands Cancer Institute (NKI), Amsterdam, The Netherlands) were subcutaneously injected in the right flank with 1×10^6 […] tumor cells. Tumors were measured three times per week with a caliper, and when tumors were 50 mm3 (after 16 days), mice were randomized over the following treatment groups: • 1. Control T cells+Control ADC (n=7) • 2. MART-1 T cells+Control ADC (n=7) • 3. MART-1 T cells+Control ADC+anti-PD1 (n=7) • 4. Control T cells+IgG1-AXL-107-vcMMAE (n=11) • 5. MART-1 T cells+IgG1-AXL-107-vcMMAE (n=11) • 6. MART-1 T cells+IgG1-AXL-107-vcMMAE+anti-PD1 (n=11) […]
Tumor volumes were measured 3 times per week by an independent animal technician in a blinded fashion. Tumor volume was calculated as follows: […]. […]

MDA-MB-231 cells = assay: Extracellular ATP release in vitro (CellTiterGlo); assay type: cell-based, human; conditions: 48 hr, hypotonic conditions (70% PBS); ADCs 2 μg/mL, MMAE 50 nM, paclitaxel 1 μM
Experimental: (§1) LCLC-103H or MDA-MB-231 cells were seeded in quadruplicate at 25,000 cells per well for LCLC-103H cells or 125,000 cells per well for MDA-MB-231 cells in 24-well plates and grown 3 hours at 37° C. Subsequently, IgG1-AXL-107-vcMMAE (2 μg/mL), free monomethyl auristatin E (MMAE; 10 or 50 nM), paclitaxel (1 μM), or isotype control ADC (IgG1-b12-vcMMAE; 2 μg/mL) were added per well.
(§2) Plates were incubated for 48 hr at 37° C. and after incubation each well was washed with 200 μL PBS. After the final wash, PBS was replaced with 200 μL fresh 100% PBS or 70% PBS (hypotonic) for the indicated times, harvested and transferred to a 96-well plate, and then spun at 1000 rpm for 2 min at RT. Supernatants were transferred to a new 96-well (optiwhite) plate and ATP was measured using CellTiterGlo Luminescent Cell Viability Assay (Promega, Cat.no G7570) according to manufacturer's instructions. All steps were performed with ice-cold PBS and in the dark.

LCLC-103H cells = assay: Extracellular ATP release in vitro (CellTiterGlo); assay type: cell-based, human; conditions: 48 hr, 100% PBS; ADC 2 μg/mL, paclitaxel 1 μM, MMAE 10 or 50 nM
Experimental: as §1, §2

For “IgG1-AXL-107-vcMMAE: anti-human AXL IgG1-kappa antibody conjugated, on an average of 4 cysteinyl, to MMAE via cleavable mc-val-cit-PABC linker”, the “anti-tumor effect (tumor size)” value [1] was “some tumor growth inhibition”, the “ATP release compared to untreated cells” value (MDA-MB-231 cells) was roughly 7 fold and the “ATP release compared to untreated cells” value (LCLC-103H cells) was “about 3 fold”.
